Results: patent US7566808B2, “Management of ophthalmologic disorders, including macular degeneration” (President and Fellows of Harvard College, priority 2004, dated 2009)

Assays:
Assay type in all cases: in vivo
[1] = test system: Abca4+/+ (Rpe65 450Leu, pigmented, 129/SV×C57BL/6J) mice; assay: ERG rod b-wave amplitude recovery after photo-bleaching; details: 50 mg/kg i.p., 3 days after treatment
Method: Electroretinogram Determinations (ERG): Mice were dark-adapted overnight before all ERG experiments. To determine the acute effect of compounds under study, mice were given a single i.p. injection of […] Control (“untreated”) animals were injected with 25 uL of DMSO. Mice were anaesthetized with ketamine (80 mg/kg) and xylazine (5-10 mg/kg) and pupils were dilated with 1% phenylephrine and 1% cyclopentolate, followed by an exposure to 5000 lux bleaching light for 2 min.
The ERG was recorded from the cornea with a cotton wick saline electrodes for about 50 min immediately after bleaching. Subcutaneous 30 gauge needles on the forehead and trunk were used as reference and ground electrodes, respectively. The animals rested on a heater maintaining the body temperature at 37° C. The light stimulus was obtained from a ganzfeld stimulator having a stroboscope (PS33 Grass Instruments Inc., West Warwick, R.I.) removed from its housing and recessed above and behind the head of the mouse. The flash was diffused to cover the ganzfeld homogeneously. Maximum flash intensity was measured with a calibrated light meter (J16 Tektronics Instruments, Beaverton, Oreg.). Responses were averaged by a Macintosh computer-controlled data acquisition system (PowerLab, AD Instruments, Mountain View, Calif.) at a frequency of 0.1 Hz. […]
The same animals were subjected to ERG experiments according to exactly the same protocol 3 days later, except no (repeated) injection of compounds was performed.
Acute effects: In order to determine whether TDT and TDH have an effect on the visual cycle in vivo, the overnight dark-adapted Abca4^+/+ (Rpe65 450Leu, pigmented, 129/SV×C57BL/6J) mice received single (i.p.) injections of the two compounds at 50 mg/kg. […]
Results are averaged from three mice in each group with SD bars shown. Both isoprenoids delayed the recovery of dark-adapted visual responses to an extent similar to that of 13-RA as judged from dark-adapted ERG b-wave amplitudes recorded using dim light flashes delivered immediately before and at regular intervals after photo-bleaching.

Sprague Dawley rats = assay: 11-cis-retinal regeneration after bleaching in rats; details: for average inhibition of 11-cis-retinal regeneration: 50 mg/kg i.p. single injection, rats
Method: To establish whether recovery of the dark-adapted rod b-wave was retarded because of an effect on 11-cis-retinal synthesis we studied the effects of TDT on 11-cis-retinal regeneration in rats and mice. The 11-cis-retinal that is regenerated is essentially all bound to rhodopsin in rodents, so that measuring its level is equivalent to measuring the rhodopsin content. Initial experiments were performed on Sprague Dawley rats because similar experiments using 13-RA were previously carried out using these animals so that ready comparisons of potency and effectiveness can be made. […] Accordingly, in the current experiments, the rats were given single injections (i.p.) of TDT (TDH) (50 mg/kg in DMSO), 13-RA (50 mg/kg in DMSO), and DMSO alone. After injecting the analogs, the rats were dark adapted for 2 h, and then exposed to light that led to <10% of dark adapted 11-cis-retinal in these animals, compared to dark adapted controls (data not shown). After allowing the bleached rats to dark-adapt again for 30 min, the animals were sacrificed, and the regenerated 11-cis-retinal was determined as indicated in Methods. In these experiments, the amount of resynthesized 11-cis-retinal, the chromophore of rhodopsin, is measured by HPLC and compared to the amounts of all-trans-retinyl ester precursor.
These figures show results of HPLC analysis of extracted retinoids from drug treated rats. […] In FIG. 28A, the relative amounts of 11-cis-retinal-syn-oxime and all-trans-(cis)-retinyl esters are shown for the control (−13-RA) (top) and drug treated animals (bottom). In FIG. 28B, the corresponding data are shown for the TDT treated rats (top-control, bottom TDT treated). In this case, the ester pool in the drug treated rat is largely, if not exclusively, all-trans. […] Upon repetition of the experiments two further times the average inhibition values are as follows: 13-RA (78±2%), TDT (79±4%), and TDH (55±2%). These percent inhibition values are generated by comparing the integrated areas under the retinyl ester and 11-cis-retinal-syn-oxime peaks. (Materials and Methods).

Balb/c mice = assay: 11-cis-retinal regeneration after bleaching in mice
Method: Animal Studies: Protocols were approved by the Standing Committee on Animal Care of Harvard Medical School, the Institutional Animal Care and Use Committee of Columbia University and complied with guidelines set forth by The Association for Research in Vision and Ophthalmology. 7 week old male Balb/c albino mice and 7 week old male Sprague-Dawley rats were from Charles River Breeding Laboratories and were housed in 12:12 h light:dark cycle. 8-10 week old Abcr null mutant mice (129/SV×C57BL/6J) were generated as formerly described (12,20) and Abcr^−/− and Abcr^+/+ mice were raised under 12-hour on-off cyclic lighting with an in-cage illuminance of 30-50 lux. In Abcr^−/− and Abcr^+/+ mice, Rpe65 was 9 sequenced as reported previously.
Similar experiments with inhibitors were also performed in Balb/c mice. Here again inhibition is observed, but the effects are less pronounced than in rats, both with 13-RA and the isoprenoid antagonists. The inhibition values are as follows: 13-RA (33±4%), TDT (35±2%), and TDH (24±6%). It is noteworthy that in rats the 11-cis chromophore is regenerated considerably more slowly than in mice.

[2] = Tolerability in treated animals; details: even when administered every 48 h
Excerpt: With respect to the pharmacology of the isoprenoid mRPE65 antagonists, it should be noted that the effects of both TDT and TDH are substantially more persistent than with 13-RA, probably because they are more hydrophobic than the retinoic acids. An increase in hydrophobicity tends to slow down rates of elimination of drugs.

| effect on rod b-wave recovery [1] | SMILES | average inhibition of 11-cis-retinal regeneration (Sprague Dawley rats) | inhibition of 11-cis-retinal regeneration (Balb/c mice) | inhibitory effect on 11-cis-retinal regeneration (Sprague Dawley rats; 50 mg/kg i.p., FIG. 28C) | tolerability / signs of toxicity [2] |
| --- | --- | --- | --- | --- | --- |
| substantial effect | CCCCCCCCCCCCCCCCNC(=O)/C=C(\C)CC/C=C(\C)CCC=C(C)C [TDH, 3,7,11-Trimethyl-dodeca-2,6,10-trienoic acid hexadecylamide] | 55±2% | 24±6% | less pronounced than with TDT | no obvious signs of toxicity and/or distress |
| substantial effect | CCCCCCCCCCC(=O)/C=C(\C)CC/C=C(\C)CCC=C(C)C [TDT, 13,17,21-Trimethyl-docosa-12,16,20-trien-11-one] | 79±4% | 35±2% | – | no obvious signs of toxicity and/or distress |

| SMILES | effect on rod b-wave recovery [1] | average inhibition of 11-cis-retinal regeneration (Sprague Dawley rats) | inhibition of 11-cis-retinal regeneration (Balb/c mice) | inhibitory effect on 11-cis-retinal regeneration (Sprague Dawley rats; 50 mg/kg i.p., FIG. 28C) | tolerability / signs of toxicity [2] |
| --- | --- | --- | --- | --- | --- |
| CC1=C(/C=C/C(C)=C/C=C/C(C)=C\C(=O)O)C(C)(C)CCC1 [13-cis-retinoic acid, reference compound] | no sustained effect | 78±2% | 33±4% | – | – |
